Results as given in ChEMBL document CHEMBL3813627, “Preventive effect of a novel diosgenin derivative on arterial and venous thrombosis in vivo” (Bioorg Med Chem Lett, 2016).
Activity calls are given as the source filed them. No cut-off for these calls is given here.

Columns and labels:
Rattus norvegicus [1] = species on record: Rattus norvegicus; test: Gastric toxicity in Sprague-Dawley rat assessed as angiogenesis treated for 49 days by hematoxylin and eosin staining based microscopic analysis; format: organism-based; conditions: in vivo, 1176 h
Mus musculus [2] = test: Toxicity in Balb/c mouse assessed as hemoglobin count at 28.8 mg/kg, ig bid for 7 days (reference value: 143 +/- 11.9 g/L); format: organism-based; conditions: in vivo, po, 168 h
Rattus norvegicus [3] = test: Anti-thrombotic activity in Sprague-Dawley rat model of FeCl3-induced arterial thrombosis assessed as reduction in arterial thrombus weight at 20 mg/kg, ig bid for 7 days; format: functional, organism-based
Rattus norvegicus [4] = test: Anticoagulant activity in platelet-rich plasma isolated from Sprague-Dawley rat assessed as thrombin time at 20 mg/kg, ig bid for 7 days (reference value: 47.1 +/- 3.1 secs); format: functional
Rattus norvegicus [5] = test: Anticoagulant activity in platelet-rich plasma isolated from Sprague-Dawley rat assessed as prothrombin time at 20 mg/kg, ig bid for 7 days (reference value: 11.6 +/- 0.98 secs); format: functional
Mus musculus [6] = test: Toxicity in Balb/c mouse assessed as hematocrit at 28.8 mg/kg, ig bid for 7 days (reference value: 40.5 +/- 3.5 %); format: organism-based; conditions: in vivo, po, 168 h
Mus musculus [7] = test: Toxicity in Balb/c mouse assessed as platelet count at 28.8 mg/kg, ig bid for 7 days (reference value: 802 +/- 74 10^9/L); format: organism-based; conditions: in vivo, po, 168 h
Rattus norvegicus [8] = test: Anti-thrombotic activity in Sprague-Dawley rat model of FeCl3-induced arterial thrombosis assessed as reduction in arterial thrombus length at 20 mg/kg, ig bid for 7 days by vernier caliper method; format: functional, organism-based
Rattus norvegicus [9] = test: In vivo activation of coagulation factor8 in Sprague-Dawley rat at 20 mg/kg, ig bid for 7 days by automated coagulometry; format: functional, organism-based
Rattus norvegicus [10] = test: In vivo activation of coagulation factor12 in Sprague-Dawley rat at 20 mg/kg, ig bid for 7 days by automated coagulometry; format: functional, organism-based
Rattus norvegicus [11] = test: In vivo activation of coagulation factor9 in Sprague-Dawley rat at 20 mg/kg, ig bid for 7 days by automated coagulometry; format: functional, organism-based
Rattus norvegicus [12] = test: Antiplatelet activity in platelet-rich plasma isolated from Sprague-Dawley rat assessed as ADP-induced platelet aggregation at 20 mg/kg, ig bid for 7 days measured for 5 mins by light transmission aggregometry (reference value: 57.57 +/- 2.43 %); format: functional
Rattus norvegicus [13] = test: In vivo activation of coagulation factor11 in Sprague-Dawley rat at 20 mg/kg, ig bid for 7 days by automated coagulometry; format: functional, organism-based
Mus musculus [14] = test: Toxicity in Balb/c mouse assessed as tail bleeding time at 28.8 mg/kg, ig bid for 7 days (reference value: 186 +/- 12 sec); format: organism-based; conditions: in vivo, po
Mus musculus [15] = test: Toxicity in Balb/c mouse assessed as white blood cell count at 28.8 mg/kg, ig bid for 7 days (reference value: 7.7 +/- 0.65 10^9/L); format: organism-based; conditions: in vivo, po, 168 h
Rattus norvegicus [16] = species on record: Rattus norvegicus; test: Gastric toxicity in Sprague-Dawley rat assessed as fibrotic changes treated for 49 days by hematoxylin and eosin staining based microscopic analysis; format: organism-based; conditions: in vivo, 1176 h
Rattus norvegicus [17] = species on record: Rattus norvegicus; test: Gastric toxicity in Sprague-Dawley rat assessed as gastric mucosal damage score treated for 49 days by hematoxylin and eosin staining based microscopic analysis; format: organism-based, Gastric mucosa; conditions: in vivo, 1176 h
Rattus norvegicus [18] = test: Anti-thrombotic activity in Sprague-Dawley rat model of FeCl3-induced venous thrombosis assessed as reduction in venous thrombus weight at 46 mg/kg, ig bid for 7 days; format: functional, organism-based
Mus musculus [19] = test: Toxicity in Balb/c mouse assessed as red blood cell count at 28.8 mg/kg, ig bid for 7 days (reference value: 7.55 +/- 0.59 10^12/L); format: organism-based; conditions: in vivo, po, 168 h
Rattus norvegicus [20] = test: In vivo activation of coagulation factor10 in Sprague-Dawley rat at 20 mg/kg, ig bid for 7 days by automated coagulometry; format: functional, organism-based
Rattus norvegicus [21] = test: Anticoagulant activity in platelet-rich plasma isolated from Sprague-Dawley rat assessed as activated partial thromboplastin time at 20 mg/kg, ig bid for 7 days (reference value: 17.6 +/- 0.92 secs); format: functional
Rattus norvegicus [22] = test: Anti-thrombotic activity in Sprague-Dawley rat model of FeCl3-induced venous thrombosis assessed as reduction in venous thrombus length at 46 mg/kg, ig bid for 7 days by vernier caliper method; format: functional, organism-based
Rattus norvegicus [23] = test: Anticoagulant activity in platelet-rich plasma isolated from Sprague-Dawley rat assessed as prothrombin time at 46 mg/kg, ig bid for 7 days (reference value: 11.6 +/- 0.98 secs); format: functional
Mus musculus [24] = test: Toxicity in Balb/c mouse assessed as hemoglobin count at 66.2 mg/kg, ig bid for 7 days (reference value: 143 +/- 11.9 g/L); format: organism-based; conditions: in vivo, po, 168 h
Mus musculus [25] = test: Toxicity in Balb/c mouse assessed as platelet count at 66.2 mg/kg, ig bid for 7 days (reference value: 802 +/- 74 10^9/L); format: organism-based; conditions: in vivo, po, 168 h
Rattus norvegicus [26] = test: Anticoagulant activity in platelet-rich plasma isolated from Sprague-Dawley rat assessed as activated partial thromboplastin time at 46 mg/kg, ig bid for 7 days (reference value: 17.6 +/- 0.92 secs); format: functional
Mus musculus [27] = test: Toxicity in Balb/c mouse assessed as red blood cell count at 66.2 mg/kg, ig bid for 7 days (reference value: 7.55 +/- 0.59 10^12/L); format: organism-based; conditions: in vivo, po, 168 h
Mus musculus [28] = test: Toxicity in Balb/c mouse assessed as white blood cell count at 66.2 mg/kg, ig bid for 7 days (reference value: 7.7 +/- 0.65 10^9/L); format: organism-based; conditions: in vivo, po, 168 h
Rattus norvegicus [29] = test: Antiplatelet activity in platelet-rich plasma isolated from Sprague-Dawley rat assessed as ADP-induced platelet aggregation at 46 mg/kg, ig bid for 7 days measured for 5 mins by light transmission aggregometry (reference value: 57.57 +/- 2.43 %); format: functional
Rattus norvegicus [30] = test: Anticoagulant activity in platelet-rich plasma isolated from Sprague-Dawley rat assessed as thrombin time at 46 mg/kg, ig bid for 7 days (reference value: 47.1 +/- 3.1 secs); format: functional
Mus musculus [31] = test: Toxicity in Balb/c mouse assessed as hematocrit at 66.2 mg/kg, ig bid for 7 days (reference value: 40.5 +/- 3.5 %); format: organism-based; conditions: in vivo, po, 168 h

SMILES: CC(=O)Oc1ccccc1C(=O)O [ASPIRIN]
- Activity (Rattus norvegicus [1]): Toxic
- Activity (Mus musculus [2]): 150 g/L
- Activity (Rattus norvegicus [3]): Active
- TT (Rattus norvegicus [4]): 45.3 s
- PT (Rattus norvegicus [5]): 10.5 s
- Activity (Mus musculus [6]): 43.8%
- Activity (Mus musculus [7]): 651 ×10⁹ /L
- Activity (Rattus norvegicus [8]): Active
- Activity (Rattus norvegicus [9]): inactive
- Activity (Rattus norvegicus [10]): inactive
- Activity (Rattus norvegicus [11]): inactive
- Activity (Rattus norvegicus [12]): 28.85%
- Activity (Rattus norvegicus [13]): inactive
- Time (Mus musculus [14]): > 900 s
- Activity (Mus musculus [15]): 7.84 ×10⁹ /L
- Activity (Rattus norvegicus [16]): Toxic
- UI (Rattus norvegicus [17]): 20.66
- Activity (Rattus norvegicus [18]): Active
- Activity (Mus musculus [19]): 7.62 ×10¹² /L
- Activity (Rattus norvegicus [20]): inactive
- APTT (Rattus norvegicus [21]): 18 s
- Activity (Rattus norvegicus [22]): Active

SMILES: C[C@@H]1CC[C@@]2(OC1)O[C@H]1C[C@H]3[C@@H]4CC=C5C[C@@H](O)CC[C@]5(C)[C@H]4CC[C@]3(C)[C@H]1[C@@H]2C [DISOGENIN]
- PT (Rattus norvegicus [23]): 15.2 s
- Activity (Rattus norvegicus [1]): Non-toxic
- Activity (Mus musculus [24]): 137 g/L
- Activity (Mus musculus [25]): 788 ×10⁹ /L
- APTT (Rattus norvegicus [26]): 19.2 s
- Activity (Mus musculus [27]): 7.45 ×10¹² /L
- Activity (Mus musculus [28]): 7.99 ×10⁹ /L
- Activity (Rattus norvegicus [29]): 49.14%
- Activity (Rattus norvegicus [16]): Non-toxic
- UI (Rattus norvegicus [17]): 1.33
- TT (Rattus norvegicus [30]): 53.2 s
- Activity (Mus musculus [31]): 39.4%
